Format in all cases: functional, cell-based
Assay [1] deals with SK-N-SH. In words: Antiproliferative activity against human SK-N-SH cells assessed as cell growth inhibition by MTT assay. (In general: Tetrazolium dyes change colour on reduction, which living cells bring about.)
The subject of assay [2] is HeLa. Description: Antiproliferative activity against human HeLa cells assessed as cell growth inhibition by MTT assay.
Assay [3] relates to A549. In words: Antiproliferative activity against human A549 cells assessed as cell growth inhibition by MTT assay.
Assay [4] has as its system MCF7. Description: Antiproliferative activity against human MCF7 cells assessed as cell growth inhibition by MTT assay.

A value given as a limit tells only on which side of the number the result lay.

On to `CCCCCCCCCCn1cc(/C=C/C(=O)c2ccc(N)cc2)nn1`, for which the concentration for half-maximal inhibition (IC50) in assay [1] was determined as 83.4 µM; in assay [2], 73.5 µM; in assay [3], 35.6 µM; in assay [4] it was 52.6 µM.
On the same counts, the results for `CCCCCCCCn1cc(/C=C/C(=O)c2ccc(NC(=O)CN3CCN(c4ccc([N+](=O)[O-])cc4)CC3)cc2)nn1` are 51.4 µM, 30.2 µM, 45.4 µM and 49.1 µM.
For `CCCCCCCCn1cc(/C=C/C(=O)c2ccc(NC(=O)CN3CCN(c4ccccc4OC)CC3)cc2)nn1`, the concentration for half-maximal inhibition (IC50) in assay [1] was 21.5 µM; in assay [2], 26.8 µM; in assay [3], 34 µM; in assay [4] it was 30 µM.
Take `O=C(CN1CCN(c2ccccc2)CC1)Nc1ccc(C(=O)/C=C/c2cn(Cc3ccc(Br)cc3)nn2)cc1`: the concentration for half-maximal inhibition (IC50) was found to be 72.4 µM in assay [1], 79.7 µM in assay [2], 42.1 µM in assay [3] and 49.2 µM in assay [4].
`CCCCCCCCn1cc(/C=C/C(=O)c2ccc(N)cc2)nn1`: the IC50 in assay [1] is 28.8 µM; in assay [2] it was 26.9 µM; in assay [3] it was 26.9 µM; in assay [4], 31 µM.
Take `CC(C)(C)OC(=O)N1CCN(CC(=O)Nc2ccc(C(=O)/C=C/c3cn(Cc4ccc(Br)cc4)nn3)cc2)CC1`: the IC50 came to 25.8 µM in assay [1], 18.9 µM in assay [2], 38.4 µM in assay [3] and 31 µM in assay [4].
Regarding `CCCCCCCCCCn1cc(/C=C/C(=O)c2ccc(NC(=O)CN3CCN(c4ccccc4F)CC3)cc2)nn1`, the IC50 is 34.4 µM in assay [1], 47.8 µM in assay [2], 57 µM in assay [3] and 40.4 µM in assay [4].
Take `CCCCCCCCn1cc(/C=C/C(=O)c2ccc(NC(=O)CN3CCN(c4ccccc4)CC3)cc2)nn1`: the IC50 came out at 41.4 µM in assay [1], 33.8 µM in assay [2], 52.4 µM in assay [3] and 31.9 µM in assay [4].
Consider `CCCCCCCCn1cc(/C=C/C(=O)c2ccc(NC(=O)CN3CCN(C(=O)OC(C)(C)C)CC3)cc2)nn1`, for which the IC50 in assay [1] was 38 µM; in assay [2], 32 µM; in assay [3], 43.3 µM; in assay [4] it was 98.4 µM.
Regarding `O=C(CN1CCN(c2ccc([N+](=O)[O-])cc2)CC1)Nc1ccc(C(=O)/C=C/c2cn(Cc3ccc(Br)cc3)nn2)cc1`, the IC50 in assay [1] was 26.4 µM; in assay [2], 26.6 µM; in assay [3], 45.5 µM; in assay [4], 31.6 µM.
As to `CCCCCCCCCCn1cc(/C=C/C(=O)c2ccc(NC(=O)CBr)cc2)nn1`, the 50% inhibitory concentration (IC50) in assay [1] came to 8.68 µM; in assay [2] it was 7.41 µM; in assay [3] it was 9.74 µM; in assay [4] it was 9.76 µM.
The like results for `CCCCCCCCCCn1cc(/C=C/C(=O)c2ccc(NC(=O)CN3CCC(Cc4ccccc4)CC3)cc2)nn1` were, in that order, 33.3 µM, 71.7 µM, 67.7 µM and 55.2 µM.
With `O=C(CN1CCN(c2ccccc2F)CC1)Nc1ccc(C(=O)/C=C/c2cn(Cc3ccc(Br)cc3)nn2)cc1`, the half-maximal inhibitory concentration (IC50) in assay [1] worked out at 12.8 µM; in assay [2] it was 9.12 µM; in assay [3] it was 14.7 µM; in assay [4] it was 11.3 µM.
The like results for `CCCCCCCCn1cc(/C=C/C(=O)c2ccc(NC(=O)CBr)cc2)nn1` were, in that order, 8.46 µM, 8.42 µM, 11.6 µM and 12.9 µM.
On to `O=C(CN1CCC(Cc2ccccc2)CC1)Nc1ccc(C(=O)/C=C/c2cn(Cc3ccc(Br)cc3)nn2)cc1`, for which the half-inhibitory concentration (IC50) in assay [1] amounted to 42.9 µM; in assay [2], 41.9 µM; in assay [3] it was 40 µM; in assay [4] it was 54.5 µM.
Take `CCCCCCCCn1cc(/C=C/C(=O)c2ccc(NC(=O)CN3CCN(c4ccccc4F)CC3)cc2)nn1`: the IC50 in assay [1] was found to be 60.3 µM; in assay [2], 33.8 µM; in assay [3], 47.1 µM; in assay [4] it was 68.6 µM.
Take `CCCCCCCCCCn1cc(/C=C/C(=O)c2ccc(NC(=O)CN3CCN(c4ccccc4)CC3)cc2)nn1`: the IC50 in assay [1] is 39.5 µM; in assay [2] it was 59.1 µM; in assay [3], 52.1 µM; in assay [4] it was over 100 µM.
For `CCCCCCCCCCn1cc(/C=C/C(=O)c2ccc(NC(=O)CN3CCN(C(=O)OC(C)(C)C)CC3)cc2)nn1`, the IC50 is 77.8 µM in assay [1], 30.2 µM in assay [2], 45.4 µM in assay [3] and 40 µM in assay [4].
For the compound `Nc1ccc(C(=O)/C=C/c2cn(Cc3ccc(Br)cc3)nn2)cc1`, the IC50 in assay [1] worked out at 25.2 µM; in assay [2], 16.4 µM; in assay [3] it was 15.8 µM; in assay [4], 25.3 µM.
Regarding `O=C(CBr)Nc1ccc(C(=O)/C=C/c2cn(Cc3ccc(Br)cc3)nn2)cc1`, the IC50 was determined as 8.3 µM in assay [1], 7.95 µM in assay [2], 8.67 µM in assay [3] and 10.1 µM in assay [4].
Consider `COc1ccccc1N1CCN(CC(=O)Nc2ccc(C(=O)/C=C/c3cn(Cc4ccc(Br)cc4)nn3)cc2)CC1`, for which the IC50 in assay [1] worked out at 28 µM; in assay [2], 26.4 µM; in assay [3], 34 µM; in assay [4], 36.8 µM.
With `CCCCCCCCCCn1cc(/C=C/C(=O)c2ccc(NC(=O)CN3CCN(c4ccc([N+](=O)[O-])cc4)CC3)cc2)nn1`, the IC50 in assay [1] came to 40.9 µM; in assay [2], 65.9 µM; in assay [3], 64.5 µM; in assay [4] it was 44.4 µM.
On the same counts, the results for `CCCCCCCCCCn1cc(/C=C/C(=O)c2ccc(NC(=O)CN3CCN(c4ccccc4OC)CC3)cc2)nn1` are 87.6 µM, 50.8 µM, 62.5 µM and 44.8 µM.
Consider `CCCCCCCCn1cc(/C=C/C(=O)c2ccc(NC(=O)CN3CCC(Cc4ccccc4)CC3)cc2)nn1`, for which the half-inhibitory concentration (IC50) in assay [1] came out at 57 µM; in assay [2] it was 78.6 µM; in assay [3], 43.8 µM; in assay [4] it was 52.6 µM.
The like results for `COc1cccc2c1C(=O)c1c(O)c3c(c(O)c1C2=O)C[C@@](O)(C(=O)CO)C[C@@H]3O[C@H]1C[C@H](N)[C@H](O)[C@H](C)O1` [DOXORUBICIN] were, in that order, 2.85 µM, 2.78 µM, 3.24 µM and 3.7 µM.

Broadly, the IC50 is the concentration that inhibits the measured activity by half.
